According to patent US10485769B2, “Cholesteryl ester transfer protein (CETP) inhibition in the treatment of cancer” (KING ABDULLAH UNIVERSITY OF SCIENCE AND TECHNOLOGY, priority 2015, dated 2019):

Test system: CETP
Assay: CETP activity in mice plasma, CETP activity assay kit
Assay type: in vivo
Settings: 5 mg/kg AP, compared to Vehicle
Description: FIG. 7: Levels of CETP mRNA in tumor (A) and protein in serum (B) in mice tumor samples after treatment with 2 mg/kg PL or 5 mg/kg AP were determined with the RT-PCR and western blotting, respectively. Fold change in expression of serum protein was determined using densitometry analysis of western blots using ImageJ (C). CETP activity in serum was estimated using CETP activity kit (name of kit/manufacturer) (D). Values represent the means±SD of three independent experiments. * where p≤0.05, and ** where p≤0.005.
The activity of CETP in mice plasma was determined using the CETP activity assay kit according to the manufacturer's instructions (FIG. 7D). CETP activity was […] in AP treated mice compared to Vehicle. This observation was in accordance with the CETP protein expression levels observed in Vehicle, AP and PL test groups. The expression levels of CETP have been reported to be linear with its activity.

CC(=O)Oc1cccc2c1C(=O)C=C(C)C2=O [AP, Acetyl Plumbagin]
CETP activity in plasma: elevated
